US10231956B2, “3-(1H-pyrrolo[3,2-C]pyridin-2-YL)-1 H-pyrazolo[4,3-B]pyridines and therapeutic uses thereof” (Samumed, LLC, priority 2015, dated 2019)

Assays:
Format in all cases: cell-based
[1] = system: Wnt activity (Sp5-Luc reporter, SW480 colon carcinoma cells); experiment: Sp5-Luc reporter gene screening assay for Wnt activity in SW480 cells; conditions: Homo sapiens, luminescence, overnight incubation
Description: The screening assay for Wnt activity is described as follows. Reporter cell lines can be generated by stably transducing cancer cell lines (e.g., colon cancer) or primary cells (e.g., IEC-6 intestinal cells) with a lentiviral construct that includes a Wnt-responsive promoter driving expression of the firefly luciferase gene.
SW480 colon carcinoma cells were transduced with a lentiviral vector expressing luciferase with a human Sp5 promoter consisting of a sequence of eight TCF/LEF binding sites. SW480 cells stably expressing the Sp5-Luc reporter gene and a hygromycin resistance gene were selected by treatment with 150 μg/mL of hygromycin for 7 days. These stably transduced SW480 cells were expanded in cell culture and used for all further screening activities. Each compound was dissolved in DMSO as a 10 mM stock and used to prepare compound source plates. Serial dilution (1:3, 10-point dose-response curves starting from 10 μM) and compound transfer was performed using the ECHO 550 (Labcyte, Sunnyvale, Calif.) into 384-well white solid bottom assay plates (Greiner Bio-One) with appropriate DMSO backfill for a final DMSO concentration of 0.1%. For Sp5-Luc reporter gene assays, the cells were plated at 4,000 cells/well in 384-well plates with medium containing 1% fetal bovine serum and incubated overnight at 37° C. and 5% CO2. Following incubation, 20 μl of BrightGlo luminescence reagent (Promega) was added to each well of the 384-well assay plates. The plates were placed on an orbital shaker for 2 min and then luminescence was quantified using the Envision (Perkin Elmer) plate reader. Readings were normalized to DMSO only treated cells, and normalized activities were utilized for EC50 calculations using the dose-response log (inhibitor) vs. response-variable slope (four parameters) nonlinear regression feature available in GraphPad Prism 5.0 (or Dotmatics). For EC50 of >10 μM, the percent inhibition at 10 μM is provided.

SW480 colon cancer cells = experiment: Cell viability assay (CellTiter-Blue) in SW480 colon cancer cells; conditions: Homo sapiens, 96 h, four days, CellTiter-Blue
Experimental: Representative compounds were screened using the following assay procedure to assess the effect on cell viability as described below.
Each compound was dissolved in DMSO as a 10 mM stock and used to prepare compound source plates. Serial dilution (1:3, 8-point dose-response curves from 10 μM to 0.0045 μM) and compound transfer was performed using the ECHO 550 (Labcyte, Sunnyvale, Calif.) into 96-well clear bottom, black-walled plates (Corning-Costar).
Approximately 2×10^3 SW480 colon cancer cells were seeded into each well and allowed to incubate in the presence or absence of compound for four days at 37° C./5% CO2. Eight replicates of DMSO-treated cells served as controls and cells treated with compound were performed in duplicate.
After incubation, 20 μL of CellTiter-Blue (Promega) was added to each well allowed to incubate for approximately 3 hours. This reagent was a buffered solution which contains resazurin, metabolically active cells were able to reduce rezarurin (blue) into resorufin (pink) which was highly fluorescent. This measured fluorescence was used as a readout for cell viability.
After incubation, the plates were read at Ex 560 nm Em 590 nm (Cytation 3, BioTek). Dose-response curves were generated and EC50 concentration values were calculated using non-linear regression curve fit in the GraphPad Prism (San Diego, Calif.) or Dotmatics' Studies Software (Bishops Stortford, UK). For EC50 of >10 μM, the percent inhibition at 10 μM is provided.

[2] = system: primary human fibroblasts derived from IPF patients (LL29 cells); experiment: Inhibition of fibrotic process: αSMA staining in TGF-β1 treated LL29 fibroblasts; conditions: Fibroblast, 96 h, TGF-β1 20 ng/mL, 4 days, % cells positive for αSMA
Description: Representative compounds were screened using primary human fibroblasts (derived from IPF patients) treated with TGF-β1 to determine their ability to inhibit the fibrotic process.
Human Fibroblast Cell Culture: Primary human fibroblasts derived from IPF patients (LL29 cells) [^1Xiaoqiu Liu, et. al., “Fibrotic Lung Fibroblasts Show Blunted Inhibition by cAMP Due to Deficient cAMP Response Element-Binding Protein Phosphorylation”, Journal of Pharmacology and Experimental Therapeutics (2005), 315(2), 678-687; ^2Watts, K. L., et. al., “RhoA signaling modulates cyclin D1 expression in human lung fibroblasts; implications for idiopathic pulmonary fibrosis”, Respiratory Research (2006), 7(1), 88] were obtained from American Type Culture Collection (ATCC) and expanded in F12 medium supplemented with 15% Fetal Bovine Serum and Penicillin/Streptomycin.
Compound Screening: Each compound was dissolved in DMSO as a 10 mM stock and used to prepare compound source plates. Serial dilution (1:2, 11-point dose-response curves from […]) and compound transfer was performed using the ECHO 550 (Labcyte, Sunnyvale, Calif.) into 384-well clear bottom assay plates (Greiner Bio-One) with appropriate DMSO backfill for a final DMSO concentration of 0.1%. LL29 cells are plated at 1,500 cells/well in 80 μL/well F12 medium supplemented with 1% Fetal Bovine Serum. One hour after addition of the cells, TGF-β1 (Peprotech; 20 ng/mL) was added to the plates to induce fibrosis (ref. 1 and 2 above). Wells treated with TGF-β1 and containing DMSO were used as controls. Cells were incubated at 37° C. and 5% CO2 for 4 days. Following incubation for 4 days, SYTOX green nucleic acid stain (Life Technologies [Thermo Fisher Scientific]) was added to the wells at a final concentration of 1 μM and incubated at room temperature for 30 min. Cells were then fixed using 4% formaldehyde (Electron Microscopy Sciences), washed 3 times with PBS followed by blocking and permeabilization using 3% Bovine Serum Albumin (BSA; Sigma) and 0.3% Triton X-100 (Sigma) in PBS. Cells were then stained with antibody specific to α-smooth muscle actin (αSMA; Abcam) (ref. 1 and 2 above) in 3% Bovine Serum Albumin (BSA; Sigma) and 0.3% Triton X-100 (Sigma) in PBS, and incubated overnight at 4° C. Cells were then washed 3 times with PBS, followed by incubation with Alexa Flor-647 conjugated secondary antibody (Life Technologies [Thermo Fisher Scientific]) and DAPI at room temperature for 1 hour. Cells were then washed 3 times with PBS and plates were sealed for imaging. αSMA staining was imaged by excitation at 630 nm and emission at 665 nm and quantified using the Compartmental Analysis program on the CellInsight CX5 (Thermo Scientific). Dead or apoptotic cells were excluded from analysis based on positive SYTOX green staining. % of total cells positive for αSMA were counted in each well and normalized to the average of 11 wells treated with TGF-β1 on the same plate using Dotmatics' Studies Software. The normalized averages (fold change over untreated) of 3 replicate wells for each compound concentration were used to create dose-responses curves and EC50 values were calculated using non-linear regression curve fit in the Dotmatics' Studies Software. For EC50 of >10 μM, the percent inhibition at 10 μM is provided.

IL-6 = IL-6 inhibition in LPS-stimulated THP-1 cells (HTRF); conditions: Homo sapiens, LPS 500 ng/mL, 22 hours, IL6 HTRF
Experimental: Human Monocyte Cell Culture: Human monocyte cell line (THP-1 cells; Catalog # TIB-202, ATCC, Manassas, Va.) were cultured in Roswell Park Memorial Institute (RPMI) 1640 Medium (Catalog #21870-100, Buffalo, N.Y.) with 1% L-glutamine, 1% HEPES, 1% Sodium Pyruvate, 2% Sodium Bicarbonate supplemented with 100 units/mL penicillin, 50 μg/mL streptomycin, 2-mercaptoethanol (0.05 mM) [basal medium] and 10% fetal bovine serum (Catalog #16140089, Life Technologies, Carlsbad, Calif.) at 37° C. and 5% CO2.
Compound Screening: THP-1 cells were cultured in basal media with 1% FBS for 24 hours before the start of the assay. Each compound was dissolved in DMSO as a 10 mM stock and used to prepare compound source plates. Serial dilution (1:3, 10-point dose-response curves starting from 1 μM) and compound transfer was performed using the ECHO 550 (Labcyte, Sunnyvale, Calif.) into 384-well white low volume assay plates (Greiner Bio-One) with appropriate DMSO backfill for a final DMSO concentration of 0.1%. THP-1 cells were plated at 5000 cells/well in the 384-well plates and incubated at 37° C. for 2 h. 500 ng/mL of LPS was added after 2 hours and cells were incubated for another 22 hours at 37° C. Plates were spun in a centrifuge for 1 minute at 10,000 rpm and a mixture of anti-IL6 XL665, and anti-IL6 Cryptate diluted in reconstitution buffer (Cisbio Inc.) was added to each well. Following incubation for 3 hrs at room temperature, Homogeneous Time-Resolved Fluorescence (HTRF) was measured using the Envision (Perkin Elmer) at 665 nm and […]. The ratio of fluorescence at 665 nm to 620 nm was used as a readout for IL6 quantification. All samples were processed in duplicate. Readings were normalized to DMSO treated cells and normalized activities were utilized for EC50 calculations using the dose-response log (inhibitor) vs. response-variable slope (four parameters) nonlinear regression feature available in GraphPad Prism 5.0 (or Dotmatics). For EC50 of >10 μM, the percent inhibition at 10 μM is provided.

| Compound | EC50 [1] | EC50 (SW480 colon cancer cells) | EC50 [2] | EC50 (IL-6) |
| --- | --- | --- | --- | --- |
| c1csc(-c2nccc3[nH]c(-c4n[nH]c5ccc(-c6cncnc6)nc45)cc23)c1 [Compound 363, 5-(Pyrimidin-5-yl)-3-(4-(thiophen-2-yl)-1H-pyrrolo[3,2-c]pyridin-2-yl)-1H-pyrazolo[4,3-b]pyridine] | 2680 nM | 1520 nM | 529 nM | 2750 nM |
| Fc1ccc(-c2nccc3[nH]c(-c4n[nH]c5ccc(-c6ccccn6)nc45)cc23)cc1 [Compound 56, 3-(4-(4-Fluorophenyl)-1H-pyrrolo[3,2-c]pyridin-2-yl)-5-(pyridin-2-yl)-1H-pyrazolo[4,3-b]pyridine] | 3470 nM | 2590 nM | 1310 nM | 7700 nM |
| Oc1cncc(-c2ccc3[nH]nc(-c4cc5c(-c6cccs6)nccc5[nH]4)c3n2)c1 [Compound 709, 5-(3-(4-(Thiophen-2-yl)-1H-pyrrolo[3,2-c]pyridin-2-yl)-1H-pyrazolo[4,3-b]pyridin-5-yl)pyridin-3-ol] | 150 nM | 457 nM | 34 nM | 1790 nM |
| CN1CCN(c2nccc3[nH]c(-c4n[nH]c5ccc(-c6cncc(NC(=O)CC(C)(C)C)c6)nc45)cc23)CC1 [Compound 240, 3,3-Dimethyl-N-(5-(3-(4-(4-methylpiperazin-1l-yl)-1H-pyrrolo[3,2-c]pyridin-2-yl)-1H-pyrazolo[4,3-b]pyridin-5-yl)pyridin-3-yl)butanamide] | 3510 nM | 3570 nM | 1010 nM | 418 nM |
| c1cc(-c2nccc3[nH]c(-c4n[nH]c5ccc(-c6cncc(CNCC7CCCC7)c6)nc45)cc23)ccn1 [Compound 137, 1-Cyclopentyl-N-((5-(3-(4-(pyridin-4-yl)-1H-pyrrolo[3,2-c]pyridin-2-yl)-1H-pyrazolo[4,3-b]pyridin-5-yl)pyridin-3-yl)methyl)methanamine] | 4490 nM | 1660 nM | 3240 nM | 9200 nM |
| O=C(Nc1cncc(-c2ccc3[nH]nc(-c4cc5c(-c6cccnc6)nccc5[nH]4)c3n2)c1)C1CCCC1 [Compound 106, N-(5-(3-(4-(Pyridin-3-yl)-1H-pyrrolo[3,2-c]pyridin-2-yl)-1H-pyrazolo[4,3-b]pyridin-5-yl)pyridin-3-yl)cyclopentanecarboxamide] | 716 nM | 737 nM | 1320 nM | 88 nM |
| c1cc2[nH]c(-c3n[nH]c4ccc(-c5cncc(CNCC6CCCC6)c5)nc34)cc2c(-c2ccoc2)n1 [Compound 333, 1-Cyclopentyl-N-((5-(3-(4-(furan-3-yl)-1H-pyrrolo[3,2-c]pyridin-2-yl)-1H-pyrazolo[4,3-b]pyridin-5-yl)pyridin-3-yl)methyl)methanamine] | 3710 nM | 1190 nM | 714 nM | 9070 nM |
| CC(C)(C)C(=O)Nc1cncc(-c2ccc3[nH]nc(-c4cc5c(-c6cccc(F)c6)nccc5[nH]4)c3n2)c1 [Compound 8, N-(5-(3-(4-(3-Fluorophenyl)-1H-pyrrolo[3,2-c]pyridin-2-yl)-1H-pyrazolo [4,3-b]pyridin-5-yl)pyridin-3-yl)pivalamide] | 4860 nM | 2620 nM | 1080 nM | 118 nM |
| c1cc2[nH]c(-c3n[nH]c4ccc(-c5cncc(OC6CCCCC6)c5)nc34)cc2c(-c2ccoc2)n1 [Compound 687, 5-(5-(Cyclohexyloxy)pyridin-3-yl)-3-(4-(furan-3-yl)-1H-pyrrolo[3,2-c]pyridin-2-yl)-1H-pyrazolo[4,3-b]pyridine] | 1010 nM | 555 nM | 452 nM | 9020 nM |
| Fc1cccc(-c2nccc3[nH]c(-c4n[nH]c5ccc(C6CCNCC6)nc45)cc23)c1 [Compound 505, 3-(4-(3-Fluorophenyl)-1H-pyrrolo[3,2-c]pyridin-2-yl)-5-(piperidin-4-yl)-1H-pyrazolo[4,3-b]pyridine] | 8320 nM | 4120 nM | 2710 nM | 1520 nM |
